Key:
barnyardgrass [1] = assay: Test A pre-/postemergence herbicide test; format: in vivo, Echinochloa crus-galli
Procedure, shortened: (§1)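 Both application timings used compounds in a non-phytotoxic solvent plus surfactant. Pre-emergence: soil sprayed directly after seeding into loam/sand. Post-emergence: foliage of 2–10 cm seedlings (1–2 leaves) sprayed. Injury rated ~10 days later, 0–100.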

kochia = assay: Test A pre-/postemergence herbicide test; format: in vivo, Kochia scoparia; settings: for Plant response rating, Kochia: 125 g ai/ha
Procedure, shortened: as §1

ragweed = assay: Test A pre-/postemergence herbicide test; format: in vivo, Ambrosia elatior; settings: for Plant response rating, Ragweed: 125 g ai/ha
Procedure, shortened: as §1

ryegrass, Italian = assay: Test A pre-/postemergence herbicide test; format: in vivo, Lolium multiflorum; settings: for Plant response rating, Ryegrass, Italian: 125 g ai/ha
Procedure, shortened: as §1

giant foxtail = assay: Test A pre-/postemergence herbicide test; format: in vivo, Setaria faberii
Procedure, shortened: as §1

pigweed = assay: Test A pre-/postemergence herbicide test; format: in vivo, Amaranthus retroflexus; settings: for Plant response rating, Pigweed: 125 g ai/ha
Procedure, shortened: as §1

wheat = assay: Test A pre-/postemergence herbicide test; format: in vivo, Triticum aestivum; settings: Postemergence, 125 g ai/ha; visual rating on 0 to 100 scale (0 no effect, 100 complete control), approx. 10 days
Procedure, shortened: as §1

corn = assay: Test A pre-/postemergence herbicide test; format: in vivo, Zea mays; settings: Postemergence
Procedure, shortened: as §1

blackgrass = assay: Test A postemergence herbicide test; format: in vivo, Alopecurus myosuroides
Procedure, shortened: (§2)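 Plants at the one- to two-leaf stage, 2–10 cm tall, grown in loam/sand pots, received postemergence sprays of the test chemicals. After about 10 days in the greenhouse, injury was scored visually against untreated controls on a 0–100 scale (0 none, 100 complete control).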

galium = assay: Test A postemergence herbicide test; format: in vivo, Galium aparine; settings: 125 g ai/ha, visual rating on 0 to 100 scale (0 no effect, 100 complete control), approx. 10 days
Procedure, shortened: as §2

rice [2] = assay: Test B flooded paddy test; format: in vivo, Oryza sativa; settings: 1000 g ai/ha, Flood; scale of 0 to 100 where 0 is no effect and 100 is complete control
Procedure, shortened: (§3)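 In-water application to pots flooded 3 cm deep, plants at 2-leaf stage. Held in greenhouse 13–15 days at constant flood depth. Scored 0–100 by eye against controls.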

sedge, umbrella [3] = assay: Test B flooded paddy test; format: in vivo, Cyperus difformis; settings: 1000 g ai/ha, Flood; scale of 0 to 100 where 0 is no effect and 100 is complete control
Procedure, shortened: as §3

ducksalad [4] = assay: Test B flooded paddy test; format: in vivo, Heteranthera limosa; settings: 1000 g ai/ha, Flood; scale of 0 to 100 where 0 is no effect and 100 is complete control
Procedure, shortened: as §3

barnyardgrass [5] = assay: Test B flooded paddy test; format: in vivo, Echinochloa crus-galli; settings: 1000 g ai/ha, Flood; scale of 0 to 100 where 0 is no effect and 100 is complete control
Procedure, shortened: as §3

rice [6] = assay: Test C flooded paddy test; format: in vivo, Oryza sativa; settings: Flood
Procedure, shortened: (§4)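 Visual injury scored against controls after 13 to 15 days in the greenhouse, using 0 (no effect) to 100 (complete control). Test compounds went straight into paddy water held 3 cm above the soil surface on 2-leaf-stage plants, with that flood depth maintained for the whole test.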

sedge, umbrella [7] = assay: Test C flooded paddy test; format: in vivo, Cyperus difformis; settings: Flood
Procedure, shortened: as §4

ducksalad [8] = assay: Test C flooded paddy test; format: in vivo, Heteranthera limosa; settings: Flood
Procedure, shortened: as §4

barnyardgrass [9] = assay: Test C flooded paddy test; format: in vivo, Echinochloa crus-galli; settings: Flood
Procedure, shortened: as §4

corn (ZEAMD) = assay: Test H preemergence mixture test (Colby); format: in vivo, Zea mays; settings: applied alone, 21 d, mean of three replicates, scale 0-100
Excerpt: (§5) Colby's Equation was used to determine the herbicidal effects expected from the mixtures. Colby's Equation (Colby, S. R. “Calculating Synergistic and Antagonistic Responses of Herbicide Combinations,” Weeds, 15(1), pp 20-22 (1967)) calculates the expected additive effect of herbicidal mixtures and for two active ingredients is of the form: Pa+b=Pa+Pb−(PaPb/100)
(§6) where • Pa+b is the percentage effect of the mixture expected from additive contribution of the individual components: • Pa is the observed percentage effect of the first active ingredient at the same use rate as in the mixture, and • Pb is the observed percentage effect of the second active ingredient at the same use rate as in the mixture. In the following Tables, rates are shown in grams of active ingredient per hectare (g a.i./ha); “Obsd.” is the observed effect. “Exp.” is the expected effect calculated from Colby's Equation.
(§7) This test evaluated the effect of mixtures of compound 80 with several commercial herbicides on four plant species. Seeds of plant species selected from corn (ZEAMD, Zea mays), soybean (GLXMA, Glycine max), waterhemp (common waterhemp, AMATA, Amaranthus rudis), and giant foxtail (SETFA, Setaria faberii) were planted into a silt loam soil and treated preemergence with test chemicals formulated in a non-phytotoxic solvent mixture which included a surfactant and applied using a volume of 281 L/ha. Each treatment was replicated three times. Treated plants and controls were maintained in a greenhouse using supplemental lighting to maintain a photoperiod of about 16 h; daytime and nighttime temperatures were about 24-30° C. and 19-21° C., respectively. Nutrients were applied using a balanced fertilizer applied through the watering system. At 21 d after treatment, all species were compared to controls and visually evaluated. Plant response ratings were calculated as the means of the three replicates, are summarized in Tables H1 through H5, and are based on a scale of 0 to 100 where 0 is no effect and 100 is complete control. A dash (-) response means no test result. The Expected (Exp.) results were calculated using Colby's Equation as described for Test G above.

soybean (GLXMA) = assay: Test H preemergence mixture test (Colby); format: in vivo, Glycine max; settings: applied alone, 21 d, mean of three replicates, scale 0-100
Excerpt: as §5, §6, §7

waterhemp (AMATA) = assay: Test H preemergence mixture test (Colby); format: in vivo, Amaranthus rudis; settings: applied alone, 21 d, mean of three replicates, scale 0-100
Excerpt: as §5, §6, §7

giant foxtail (SETFA) = assay: Test H preemergence mixture test (Colby); format: in vivo, Setaria faberii; settings: applied alone, 21 d, mean of three replicates, scale 0-100
Excerpt: as §5, §6, §7

[10] = Postemergence, 125 g ai/ha, visual rating on 0 to 100 scale (0 no effect, 100 complete control), approx. 10 days
[11] = Postemergence, 500 g ai/ha, 0 to 100 scale (0 no effect, 100 complete control)
[12] = Preemergence, 125 g ai/ha, 0 to 100 scale where 0 is no effect and 100 is complete control
[13] = Preemergence, 500 g ai/ha, visual rating on 0 to 100 scale (0 no effect, 100 complete control)
[14] = Postemergence, visual rating on 0 to 100 scale (0 no effect, 100 complete control), approx. 10 days
[15] = Preemergence, 0 to 100 scale where 0 is no effect and 100 is complete control
[16] = 125 g ai/ha, visual rating on 0 to 100 scale (0 no effect, 100 complete control), approx. 10 days
[17] = 500 g ai/ha, 0 to 100 scale (0 no effect, 100 complete control)
[18] = 125 g ai/ha, scale of 0 to 100 where 0 is no effect and 100 is complete control, 13 to 15 days
[19] = 250 g ai/ha, scale of 0 to 100 where 0 is no effect and 100 is complete control, 13 to 15 days

SMILES: O=C1NCC(c2cccc(C(F)(F)F)c2)C1C(=O)Nc1cccc(Cl)c1F (centres unmarked) [Compound 344]
- Plant response rating, Barnyardgrass (barnyardgrass [1]; [10]): 60
- Plant response rating, Barnyardgrass (barnyardgrass [1]; [11]): 90
- Plant response rating, Barnyardgrass (barnyardgrass [1]; [12]): 50
- Barnyardgrass plant response rating (barnyardgrass [1]; [13]): 90
- Plant response rating, Kochia (kochia; [14]): 0
- Plant response rating, Kochia (kochia; [15]): 0
- Kochia plant response rating (kochia; [13]): 0
- Plant response rating, Ragweed (ragweed; [14]): 0
- Plant response rating, Ragweed (ragweed; [15]): 0
- Ragweed plant response rating (ragweed; [13]): 0
- Plant response rating, Ryegrass, Italian (ryegrass, Italian; [14]): 0
- Plant response rating, Ryegrass, Italian (ryegrass, Italian; [15]): 0
- Ryegrass, Italian plant response rating (ryegrass, Italian; [13]): 30
- Plant response rating, Foxtail, Giant (giant foxtail; [10]): 80
- Plant response rating, Foxtail, Giant (giant foxtail; [11]): 90
- Plant response rating, Foxtail, Giant (giant foxtail; [12]): 80
- Foxtail, Giant plant response rating (giant foxtail; [13]): 90
- Plant response rating, Pigweed (pigweed; [14]): 0
- Plant response rating, Pigweed (pigweed; [15]): 0
- Pigweed plant response rating (pigweed; [13]): 0
- Plant response rating, Wheat (wheat): 0
- Plant response rating, Corn (corn; [16]): 0
- Plant response rating, Corn (corn; [17]): 0
- Plant response rating, Blackgrass (blackgrass; [16]): 0
- Plant response rating, Blackgrass (blackgrass; [17]): 0
- Plant response rating, Galium (galium): 0
- Plant response rating, Rice (rice [2]): 10
- Plant response rating, Sedge, Umbrella (sedge, umbrella [3]): 0
- Plant response rating, Ducksalad (ducksalad [4]): 90
- Plant response rating, Barnyardgrass (barnyardgrass [5]): 85
- Plant response rating, Rice (rice [6]; [18]): 0
- Plant response rating, Rice (rice [6]; [19]): 0
- Plant response rating, Rice (rice [6]; 500 g ai/ha, scale 0 to 100): 0
- Plant response rating, Rice (rice [6]; 1000 g ai/ha, scale 0 to 100): 0
- Plant response rating, Sedge, Umbrella (sedge, umbrella [7]; [18]): 0
- Plant response rating, Sedge, Umbrella (sedge, umbrella [7]; [19]): 0
- Plant response rating, Sedge, Umbrella (sedge, umbrella [7]; 500 g ai/ha, scale 0 to 100): 0
- Plant response rating, Sedge, Umbrella (sedge, umbrella [7]; 1000 g ai/ha, scale 0 to 100): 0
- Plant response rating, Ducksalad (ducksalad [8]; [18]): 50
- Plant response rating, Ducksalad (ducksalad [8]; [19]): 60
- Plant response rating, Ducksalad (ducksalad [8]; 500 g ai/ha, scale 0 to 100): 65
- Plant response rating, Ducksalad (ducksalad [8]; 1000 g ai/ha, scale 0 to 100): 85
- Plant response rating, Barnyardgrass (barnyardgrass [9]; [18]): 0
- Plant response rating, Barnyardgrass (barnyardgrass [9]; [19]): 35
- Plant response rating, Barnyardgrass (barnyardgrass [9]; 500 g ai/ha, scale 0 to 100): 40
- Plant response rating, Barnyardgrass (barnyardgrass [9]; 1000 g ai/ha, scale 0 to 100): 55

SMILES: CCc1cccc(C)c1N(C(=O)CCl)[C@@H](C)COC [S-metolachlor]
- ZEAMD Obsd. (corn (ZEAMD); 31 g a.i./ha): 13
- ZEAMD Obsd. (corn (ZEAMD); 125 g a.i./ha): 20
- GLXMA Obsd. (soybean (GLXMA); 31 g a.i./ha): 18
- GLXMA Obsd. (soybean (GLXMA); 125 g a.i./ha): 15
- AMATA Obsd. (waterhemp (AMATA); 31 g a.i./ha): 0
- AMATA Obsd. (waterhemp (AMATA); 125 g a.i./ha): 85
- SETFA Obsd. (giant foxtail (SETFA); 31 g a.i./ha): 73
- SETFA Obsd. (giant foxtail (SETFA); 125 g a.i./ha): 99

SMILES: CC(C)N(C)S(=O)(=O)NC(=O)c1cc(-n2c(=O)cc(C(F)(F)F)n(C)c2=O)c(F)cc1Cl [Saflufenacil]
- ZEAMD Obsd. (corn (ZEAMD); 1 g a.i./ha): 20
- ZEAMD Obsd. (corn (ZEAMD); 31 g a.i./ha): 0
- GLXMA Obsd. (soybean (GLXMA); 1 g a.i./ha): 0
- GLXMA Obsd. (soybean (GLXMA); 31 g a.i./ha): 13
- AMATA Obsd. (waterhemp (AMATA); 1 g a.i./ha): 0
- AMATA Obsd. (waterhemp (AMATA); 31 g a.i./ha): 83
- SETFA Obsd. (giant foxtail (SETFA); 1 g a.i./ha): 0
- SETFA Obsd. (giant foxtail (SETFA); 31 g a.i./ha): 23

Reference: patent publication US10294202B2, “Pyrrolidinones as herbicides” (FMC Corporation, priority 2013, dated 2019)
